From ChEMBL document CHEMBL1201862, “PubChem BioAssay data set” (2004)
Calls of active or inactive are those of the source.

Legend:
HEK293 [1] = test: NOD1 signaling inhibitors, primary screen, cell-based, luminescence, uHTS (AID 1578); format: functional; details: Homo sapiens
HEK293 [2] = test: cells; format: functional, cell-based; details: Homo sapiens
HEK293 [3] = test: cells; format: functional, cell-based; details: Homo sapiens; remark: listed apart in the source
[4] = target: Nucleotide-binding oligomerization domain-containing protein 2 (Homo sapiens, UniProt Q9HC29); test: NOD2 signaling inhibitors, cell-based, luminescence, uHTS, HEK293 (AID 1566); format: functional
HEK293 [5] = test: NOD2 signaling inhibitors in MDP-stimulated cells, cell-based, uHTS, luminescence (AID 2001); format: functional; details: Homo sapiens
HEK293 [6] = test: cells; format: functional, cell-based; details: Homo sapiens; remark: listed apart in the source
Tumor necrosis factor = Tumor necrosis factor (Homo sapiens, UniProt P01375); test: TNFa-triggered NF-kB activation inhibitors, SAR follow-up, cell-based, revised (AID 2337); format: functional
[7] = target: T1, Nucleotide-binding oligomerization domain-containing protein 1 (Homo sapiens, UniProt Q9Y239); test: NOD1 signaling inhibitors, SAR follow-up, revised (AID 2333); format: functional
T1 sequence (Q9Y239 whole entry): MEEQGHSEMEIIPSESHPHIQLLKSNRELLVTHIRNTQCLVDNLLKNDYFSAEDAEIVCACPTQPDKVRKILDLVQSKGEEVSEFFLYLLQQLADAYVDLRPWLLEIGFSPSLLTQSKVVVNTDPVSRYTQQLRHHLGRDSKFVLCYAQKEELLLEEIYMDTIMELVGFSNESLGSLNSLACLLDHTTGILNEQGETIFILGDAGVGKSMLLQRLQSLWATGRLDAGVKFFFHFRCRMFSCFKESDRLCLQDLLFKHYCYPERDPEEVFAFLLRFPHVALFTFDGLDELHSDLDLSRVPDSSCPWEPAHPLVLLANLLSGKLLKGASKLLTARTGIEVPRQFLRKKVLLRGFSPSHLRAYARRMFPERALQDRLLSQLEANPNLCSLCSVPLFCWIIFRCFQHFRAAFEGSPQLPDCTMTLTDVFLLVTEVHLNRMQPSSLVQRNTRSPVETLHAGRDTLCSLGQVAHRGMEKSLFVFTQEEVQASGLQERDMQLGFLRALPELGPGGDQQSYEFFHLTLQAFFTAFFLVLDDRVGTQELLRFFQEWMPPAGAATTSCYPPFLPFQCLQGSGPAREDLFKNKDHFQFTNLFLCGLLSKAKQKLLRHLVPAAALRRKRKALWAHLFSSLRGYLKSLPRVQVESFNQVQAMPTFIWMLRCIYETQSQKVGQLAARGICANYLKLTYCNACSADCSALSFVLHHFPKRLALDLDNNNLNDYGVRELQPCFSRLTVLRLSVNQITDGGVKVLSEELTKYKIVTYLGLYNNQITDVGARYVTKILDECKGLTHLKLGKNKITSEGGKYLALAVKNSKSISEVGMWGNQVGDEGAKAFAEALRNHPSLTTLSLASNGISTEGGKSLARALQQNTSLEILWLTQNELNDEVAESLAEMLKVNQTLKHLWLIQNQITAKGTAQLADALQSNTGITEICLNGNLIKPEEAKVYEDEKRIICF

Genome polyprotein = Genome polyprotein (dengue virus type 2, UniProt P29990); test: Dengue-2 NS5 methyltransferase inhibitors, primary screen, biochemical, confirmation dose response (AID 588689); format: functional
Major prion protein = Major prion protein (Homo sapiens, UniProt P04156); format: functional, cell-based
HEK293 [8] = test: cells; details: Homo sapiens
[9] = target: T2, High affinity choline transporter 1 (Homo sapiens, UniProt Q9GZV3); test: CHT inhibitors, dose response, cell-based, 5-point CRC, membrane potential dye (AID 504840); format: functional
T2 sequence (Q9GZV3 whole entry): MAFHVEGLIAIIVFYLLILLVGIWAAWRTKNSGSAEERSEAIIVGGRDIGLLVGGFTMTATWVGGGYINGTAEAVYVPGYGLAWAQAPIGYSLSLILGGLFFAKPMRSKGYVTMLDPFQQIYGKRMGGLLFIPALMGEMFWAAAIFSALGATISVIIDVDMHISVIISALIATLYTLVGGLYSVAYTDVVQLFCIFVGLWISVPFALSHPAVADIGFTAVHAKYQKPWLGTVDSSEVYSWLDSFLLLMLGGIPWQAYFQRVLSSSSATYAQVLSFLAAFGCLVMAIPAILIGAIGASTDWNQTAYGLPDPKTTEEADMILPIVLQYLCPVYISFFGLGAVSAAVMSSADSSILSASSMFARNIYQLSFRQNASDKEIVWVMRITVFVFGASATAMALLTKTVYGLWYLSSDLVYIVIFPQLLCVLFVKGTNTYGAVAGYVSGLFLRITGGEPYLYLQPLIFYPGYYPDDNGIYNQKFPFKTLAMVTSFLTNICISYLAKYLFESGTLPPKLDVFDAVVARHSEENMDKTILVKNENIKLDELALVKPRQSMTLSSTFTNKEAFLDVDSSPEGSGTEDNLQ

[10] = ADAM10 inhibitors, peptide cleavage, dose response, biochemical, QFRET (AID 743254);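 note: ADAM10 enzyme with the DM2 quenched FRET peptide as substrate; EDANS fluorescence gain as the protease cuts the substrate; inhibitor potency against ADAM10 proteolytic activity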
[11] = target: T3, Disintegrin and metalloproteinase domain-containing protein 17 (Homo sapiens, UniProt P78536); test: ADAM17 protease inhibitors, dose response, counter-screen for ADAM10 exosite inhibitor project, biochemical, quenched FRET substrate (AID 743253)
Beta-galactosidase = Beta-galactosidase (Escherichia coli, UniProt Q8VNN2); test: Dose response counterscreen for EBI2 assay utilizing the enzyme, b-galactosidase.; format: functional
[12] = target: SWI/SNF-related matrix-associated actin-dependent regulator of chromatin subfamily A member 2 (Homo sapiens, UniProt P51531); test: Luminescence-based cell-based high throughput dose response assay to identify activators of the function of SWI/SNF related, matrix associated, actin dependent regulator of chromatin, subfamily a, member 2 (SMARCA2, BRM).; format: functional
[13] = Counterscreen for activators of the function of SWI/SNF related, matrix associated, actin dependent regulator of chromatin, subfamily a, member 2 (SMARCA2, BRM): Luminescence-based cell-based high throughput dose response assay to identify non-selective compounds using the VP16 reporter assay.; format: functional
[14] = inhibitors of intracellular T. cruzi replication, confirmation, NIH3T3 host cells, beta-gal luminescence (AID 2044); format: functional, cell-based;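 note: intracellular parasites grown in NIH/3T3 mouse fibroblasts as host cells; luminescent beta-galactosidase reporter signal from transgenic T. cruzi replicating inside host cells; inhibitors lower the luminescence signal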
[15] = cytotoxicity toward NIH3T3 fibroblasts, dose response, counter-screen, cell-based, ATP luminescence, mouse fibroblasts (AID 2010); format: functional;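 note: cells exposed to compound for about 90 hours before reading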
Protein skinhead-1 = target: T4, Protein skinhead-1 (Caenorhabditis elegans, UniProt P34707); format: functional
T4 sequence (P34707 whole entry): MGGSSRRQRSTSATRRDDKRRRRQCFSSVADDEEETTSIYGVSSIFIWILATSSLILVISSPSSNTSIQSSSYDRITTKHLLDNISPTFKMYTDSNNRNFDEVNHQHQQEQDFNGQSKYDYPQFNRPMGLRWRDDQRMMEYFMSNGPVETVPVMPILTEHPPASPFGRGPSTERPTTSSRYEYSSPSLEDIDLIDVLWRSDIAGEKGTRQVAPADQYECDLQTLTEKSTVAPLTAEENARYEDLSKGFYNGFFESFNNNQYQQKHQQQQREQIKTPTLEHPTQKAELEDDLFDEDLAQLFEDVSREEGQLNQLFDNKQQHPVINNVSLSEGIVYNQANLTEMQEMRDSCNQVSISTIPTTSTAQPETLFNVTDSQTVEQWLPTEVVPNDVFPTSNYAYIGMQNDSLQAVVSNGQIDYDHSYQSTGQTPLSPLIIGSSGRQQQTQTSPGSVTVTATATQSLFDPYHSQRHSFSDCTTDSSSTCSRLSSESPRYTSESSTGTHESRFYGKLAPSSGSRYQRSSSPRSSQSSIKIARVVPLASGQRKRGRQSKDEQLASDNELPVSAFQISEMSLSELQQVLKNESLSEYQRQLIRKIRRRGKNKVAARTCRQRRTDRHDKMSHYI

[16] = target: T3, Disintegrin and metalloproteinase domain-containing protein 17; test: exosite inhibitors of ADAM17, dose response, biochemical (AID 743260)
[17] = ADAM10 protease inhibitors, dose response, selectivity assay for ADAM17 exosite inhibitor project, biochemical, FRET peptide substrate, recombinant human ADAM10 (AID 743259);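 note: ADAM10 enzyme cleaving a FRET peptide substrate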

COc1cc(C(=O)Nc2scc(-c3ccc(Br)cc3)c2C(=O)O)cc(OC)c1OC
EC50 (HEK293 [1]): 3.97 µM (active) | IC50 (HEK293 [2]): > 20 µM (inactive) | IC50 (HEK293 [3]): > 20 µM (inactive) | EC50 [4]: 13.9 µM (active) | IC50 (HEK293 [5]): 13.2 µM (inactive) | IC50 (HEK293 [6]): 19 µM (active) | IC50 (Tumor necrosis factor): 6.88 µM (active) | IC50 [7]: 5.83 µM (active) | IC50 (Genome polyprotein): 58 µM (active) | IC50 (Major prion protein): 5.71 µM (active) | IC50 (HEK293 [8]): 13.6 µM (active) | IC50 (cells): > 138 µM (inactive)

Cc1csc(NC(=O)CSc2nc(C(C)C)nc3ccccc23)n1
IC50 [9]: 7.94 µM (active) | IC50 (Major prion protein): 2.05 µM (active) | IC50 (cells): 69.1 µM (inactive)

CCC1CO/C(=C(\C(Cl)=C(Cl)Cl)[N+](=O)[O-])N1 (configuration not stated)
IC50 [10]: 14.9 µM (inactive) | IC50 [11]: 27.9 µM (inactive)

O=C(c1ccc2ccccc2c1)N1CCN(c2ccc(C(F)(F)F)cn2)CC1
IC50 (Beta-galactosidase): > 80 µM (inactive)

COC(=O)Nc1ccc(OCc2ccccc2)cc1
EC50 [12]: > 91.2 µM (inactive) | EC50 [13]: > 91.2 µM (inactive)

O=C(c1cc2ccccc2o1)N1CCN(c2ccccc2Cl)CC1
IC50 (Beta-galactosidase): > 80 µM (inactive)

CC(C)(C)OC(=O)NCCCC[C@H](NC(=O)c1[nH]cnc1C(=O)NC(c1ccccc1)c1ccccc1)C(=O)OC(C)(C)C
EC50 [14]: 3.48 µM (active) | EC50 [15]: > 60 µM (not active) | IC50 [10]: 10.6 µM (inactive) | IC50 [11]: > 69.5 µM (inactive)

O=C(c1cccs1)N1CCc2c([nH]c3ccccc23)C1c1ccc(Cl)cc1 (configuration not stated)
IC50 (Protein skinhead-1): > 100 µM (inactive) | IC50 [10]: > 69.5 µM (inactive) | IC50 [16]: > 69.5 µM (inactive) | IC50 [17]: 32.4 µM (inactive) | IC50 [11]: > 69.5 µM (inactive)

CCC1NC(=O)c2cc3ccccc3cc2-n2c1nc1cc(C)cc(C)c1c2=O (configuration not stated)
IC50 (Beta-galactosidase): > 80 µM (inactive)

Nc1nc2ccc(Cl)cc2cc1C(=O)NCc1ccccc1Br
IC50 (Major prion protein): 7.35 µM (active) | IC50 (cells): 46.3 µM (inactive)

Cc1ccc(-c2cc(C(=O)NN=Cc3cccc(OCc4ccccc4)c3)[nH]n2)cc1C
IC50 [16]: > 69.5 µM (inactive) | IC50 [17]: > 69.5 µM (inactive)

O=C(CSc1nc2ccccc2s1)N/N=C/c1ccco1
EC50 [12]: > 91.2 µM (inactive) | EC50 [13]: > 91.2 µM (inactive)
